Data taken from PubChem BioAssay (NCI).
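Following 48 hours of exposure in 96-well plates, responses at five concentrations were used to interpolate endpoints linearly. GI50 = concentration required for 50% inhibition of growth. Definition used: TGI = concentration required for complete inhibition of growth.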

How the values were obtained:
Test in all cases: NCI-60 cell line screen, 48 h
MCF7 breast = tested on: MCF7 breast
HS 578T breast = tested on: HS 578T breast
T-47D breast = tested on: T-47D breast
SK-MEL-5 melanoma = tested on: SK-MEL-5 melanoma
HT29 colon = tested on: HT29 colon
UACC-257 melanoma = tested on: UACC-257 melanoma
MDA-MB-435 = tested on: MDA-MB-435
CCRF-CEM leukemia = tested on: CCRF-CEM leukemia
MALME-3M melanoma = tested on: MALME-3M melanoma
SNB-75 CNS = tested on: SNB-75 CNS

COc1ccc(-c2cn(C)c3c2-n2cccc2C3=O)cc1O
GI50 (MCF7 breast): 0.806 µM
TGI (MCF7 breast): 20.3 µM
GI50 (HS 578T breast): 0.611 µM
TGI (HS 578T breast): 3.9 µM
GI50 (T-47D breast): 4.78 µM
TGI (T-47D breast): 28.9 µM
GI50 (SK-MEL-5 melanoma): 1.4 µM
TGI (SK-MEL-5 melanoma): 5.93 µM
GI50 (HT29 colon): 18 µM
TGI (HT29 colon): > 100 µM
GI50 (UACC-257 melanoma): 15.9 µM
TGI (UACC-257 melanoma): 32.9 µM
GI50 (MDA-MB-435): 0.893 µM
TGI (MDA-MB-435): 3.91 µM
GI50 (CCRF-CEM leukemia): 3.66 µM
TGI (CCRF-CEM leukemia): 25.4 µM
GI50 (MALME-3M melanoma): 1.77 µM
TGI (MALME-3M melanoma): 9.28 µM

O=C(n1c2ccccc2c2n[nH]c(=S)nc21)C(F)(F)F
TGI (SK-MEL-5 melanoma): > 100 µM
TGI (SNB-75 CNS): > 100 µM
TGI (HT29 colon): > 100 µM
TGI (CCRF-CEM leukemia): > 100 µM
TGI (MALME-3M melanoma): > 100 µM

COc1ccc(-c2nc(NC(=O)CS(=O)(=O)c3ccc(F)cc3)sc2C)cc1
GI50 (MCF7 breast): 16.3 µM
TGI (MCF7 breast): > 100 µM
GI50 (HS 578T breast): 14.8 µM
TGI (HS 578T breast): 63.3 µM
GI50 (T-47D breast): 21.7 µM
TGI (T-47D breast): 80.6 µM
GI50 (SK-MEL-5 melanoma): 12.8 µM
TGI (SK-MEL-5 melanoma): 25.9 µM
GI50 (SNB-75 CNS): 9.45 µM
TGI (SNB-75 CNS): 60.9 µM
GI50 (HT29 colon): 11 µM
TGI (HT29 colon): 39.4 µM
GI50 (MDA-MB-435): 3.29 µM
TGI (MDA-MB-435): 12.1 µM
GI50 (MALME-3M melanoma): 23 µM
TGI (MALME-3M melanoma): 66.4 µM

O=c1[nH]c2nc3ccccc3c(=O)n2nc1Cc1ccccc1
TGI (SK-MEL-5 melanoma): > 100 µM
TGI (SNB-75 CNS): > 100 µM
TGI (HT29 colon): > 100 µM
TGI (UACC-257 melanoma): > 100 µM
TGI (CCRF-CEM leukemia): > 100 µM
TGI (MALME-3M melanoma): > 100 µM

O=C(O)CCC(O)=C1S(=O)(=O)OCCOS1(=O)=O
TGI (MCF7 breast): > 100 µM
TGI (HS 578T breast): > 100 µM
TGI (T-47D breast): > 100 µM
TGI (SK-MEL-5 melanoma): > 100 µM
TGI (SNB-75 CNS): > 100 µM
TGI (HT29 colon): > 100 µM
TGI (UACC-257 melanoma): > 100 µM
TGI (MDA-MB-435): > 100 µM
TGI (MALME-3M melanoma): > 100 µM

CCOC(=O)c1ccc(N=Cc2ccc(N(CCC#N)S(=O)(=O)c3ccccc3)cc2C)cc1
TGI (SK-MEL-5 melanoma): > 100 µM
TGI (SNB-75 CNS): > 100 µM
TGI (HT29 colon): > 100 µM
TGI (UACC-257 melanoma): > 100 µM
TGI (CCRF-CEM leukemia): > 100 µM
TGI (MALME-3M melanoma): > 100 µM

Nc1[nH]nc(Nc2ccccc2)c1-c1nc2ccccc2s1
GI50 (MCF7 breast): 2.26 µM
TGI (MCF7 breast): 8.68 µM
GI50 (HS 578T breast): 2.53 µM
TGI (HS 578T breast): 9.86 µM
GI50 (T-47D breast): 2.2 µM
TGI (T-47D breast): 11.2 µM
GI50 (SK-MEL-5 melanoma): 4.66 µM
TGI (SK-MEL-5 melanoma): 15.8 µM
GI50 (SNB-75 CNS): 2.39 µM
TGI (SNB-75 CNS): 10.9 µM
GI50 (HT29 colon): 3.39 µM
TGI (HT29 colon): 11.5 µM
GI50 (MDA-MB-435): 1.94 µM
TGI (MDA-MB-435): 4.89 µM
GI50 (CCRF-CEM leukemia): 0.911 µM
TGI (CCRF-CEM leukemia): 9.61 µM
GI50 (MALME-3M melanoma): 2.79 µM
TGI (MALME-3M melanoma): 8.58 µM

COc1ccc(CCN2CCCn3c2nc2ccccc2c3=O)cc1
GI50 (MCF7 breast): 0.0295 µM
TGI (MCF7 breast): > 100 µM
GI50 (HS 578T breast): 0.356 µM
TGI (HS 578T breast): > 100 µM
GI50 (SK-MEL-5 melanoma): 0.0433 µM
TGI (SK-MEL-5 melanoma): 4.44 µM
GI50 (HT29 colon): 0.0365 µM
TGI (HT29 colon): > 28.4 µM
GI50 (UACC-257 melanoma): > 100 µM
TGI (UACC-257 melanoma): > 100 µM
GI50 (MDA-MB-435): 0.022 µM
TGI (MDA-MB-435): 0.061 µM
GI50 (CCRF-CEM leukemia): 0.162 µM
TGI (CCRF-CEM leukemia): > 100 µM
GI50 (MALME-3M melanoma): 0.0538 µM
TGI (MALME-3M melanoma): > 100 µM

Cc1nc(-n2nc(-c3ccccc3)cc2-c2ccccc2)sc1C(=O)CC(=O)C(=O)Nc1ccc(Cl)c(Cl)c1
TGI (SNB-75 CNS): > 100 µM
TGI (HT29 colon): > 100 µM
TGI (UACC-257 melanoma): > 100 µM
TGI (CCRF-CEM leukemia): > 100 µM
TGI (MALME-3M melanoma): > 100 µM

CC1(Cl)C(=O)NC(=O)N([C@H]2C[C@H](O)[C@@H](CO)O2)C1N=[N+]=[N-] (stereo partly drawn)
TGI (SK-MEL-5 melanoma): > 100 µM
TGI (SNB-75 CNS): > 100 µM
TGI (HT29 colon): > 100 µM
TGI (UACC-257 melanoma): > 100 µM
TGI (CCRF-CEM leukemia): > 100 µM
TGI (MALME-3M melanoma): > 100 µM

N.N.N.N.N#N.N#N.[Cl-].[Os+6]
GI50 (SK-MEL-5 melanoma): > 100 µM
TGI (SK-MEL-5 melanoma): > 100 µM
GI50 (SNB-75 CNS): > 100 µM
TGI (SNB-75 CNS): > 100 µM
GI50 (MALME-3M melanoma): > 100 µM
TGI (MALME-3M melanoma): > 100 µM

Cc1cccc(NC(=O)c2c(N)[n+]([O-])c3ccccc3[n+]2[O-])c1
TGI (SK-MEL-5 melanoma): 17 µM
TGI (SNB-75 CNS): 30.2 µM
TGI (HT29 colon): 27.7 µM
TGI (UACC-257 melanoma): 24.4 µM
TGI (CCRF-CEM leukemia): > 100 µM
TGI (MALME-3M melanoma): 27.1 µM

O=C(c1ccc(Cl)cc1Cl)N1CCN(C(=O)c2ccc(Cl)cc2Cl)C1=S
GI50 (MCF7 breast): 18.3 µM
TGI (MCF7 breast): 36.7 µM
GI50 (HS 578T breast): 41 µM
TGI (HS 578T breast): > 100 µM
GI50 (T-47D breast): 19.5 µM
TGI (T-47D breast): 62.6 µM
GI50 (SNB-75 CNS): 22.3 µM
TGI (SNB-75 CNS): 61.7 µM
GI50 (HT29 colon): 20.4 µM
TGI (HT29 colon): 48.9 µM
GI50 (UACC-257 melanoma): 28.2 µM
TGI (UACC-257 melanoma): 63.4 µM
GI50 (MDA-MB-435): 16.4 µM
TGI (MDA-MB-435): 33.7 µM
GI50 (CCRF-CEM leukemia): 19.5 µM
TGI (CCRF-CEM leukemia): 38.5 µM
GI50 (MALME-3M melanoma): 25.4 µM
TGI (MALME-3M melanoma): 62.7 µM

COc1ccc2c(=O)c(-c3cc(OC)c(OC)cc3OC)coc2c1
TGI (MCF7 breast): > 100 µM
TGI (T-47D breast): > 100 µM
TGI (SK-MEL-5 melanoma): > 100 µM
TGI (SNB-75 CNS): 8.93 µM
TGI (HT29 colon): > 38.3 µM
TGI (UACC-257 melanoma): > 100 µM
TGI (CCRF-CEM leukemia): > 100 µM
TGI (MALME-3M melanoma): > 100 µM

O=C1c2ccccc2C(=O)N1c1ccc(Cc2ccc(N3C(=O)c4ccccc4C3=O)cc2)cc1
TGI (MCF7 breast): > 100 µM
TGI (HS 578T breast): > 100 µM
TGI (T-47D breast): > 100 µM
TGI (SK-MEL-5 melanoma): > 100 µM
TGI (SNB-75 CNS): > 100 µM
TGI (HT29 colon): > 100 µM
TGI (UACC-257 melanoma): > 100 µM
TGI (MDA-MB-435): > 100 µM
TGI (MALME-3M melanoma): > 100 µM

O=C(c1ccccc1)c1nc2c(Cl)ccc(Cl)c2cc1C(Br)Br
TGI (SK-MEL-5 melanoma): 2.7 µM
TGI (SNB-75 CNS): 2.07 µM
TGI (UACC-257 melanoma): 1.54 µM
TGI (CCRF-CEM leukemia): 1.33 µM
TGI (MALME-3M melanoma): 5.66 µM

COC(=O)NC1(NC(=O)OC)NC(=O)c2ccccc2N1
TGI (MCF7 breast): > 100 µM
TGI (HS 578T breast): > 100 µM
TGI (T-47D breast): > 100 µM
TGI (SK-MEL-5 melanoma): > 100 µM
TGI (SNB-75 CNS): > 100 µM
TGI (HT29 colon): > 100 µM
TGI (UACC-257 melanoma): > 100 µM
TGI (CCRF-CEM leukemia): > 100 µM
TGI (MALME-3M melanoma): > 100 µM

CN(C)CCNC(=O)c1ccc2c(c1)oc1cc3ccccc3c(=O)n12
GI50 (SK-MEL-5 melanoma): 23.3 µM
TGI (SK-MEL-5 melanoma): 39.9 µM
GI50 (SNB-75 CNS): 11.1 µM
TGI (SNB-75 CNS): 27.4 µM
GI50 (HT29 colon): 18.1 µM
TGI (HT29 colon): 40.4 µM
GI50 (UACC-257 melanoma): 21.7 µM
TGI (UACC-257 melanoma): 37.5 µM
GI50 (MDA-MB-435): 15.1 µM
TGI (MDA-MB-435): 32.7 µM
GI50 (MALME-3M melanoma): 23.4 µM
TGI (MALME-3M melanoma): 43.7 µM

Cc1nc2ccccc2c(=O)n1/N=C(\N=Nc1ccc(Cl)cc1)c1cccc(-c2ccco2)c1
TGI (SK-MEL-5 melanoma): 57.4 µM
TGI (HT29 colon): > 100 µM
TGI (CCRF-CEM leukemia): 88.2 µM

Cn1c(=O)nc2n(-c3ccc(Br)cc3)c3ccccc3nc-2c1=O
TGI (SK-MEL-5 melanoma): 4.12 µM
TGI (SNB-75 CNS): 19.4 µM
TGI (HT29 colon): 7.44 µM
TGI (UACC-257 melanoma): 6.79 µM
TGI (CCRF-CEM leukemia): 19.9 µM
TGI (MALME-3M melanoma): 12.7 µM

CCCCC[C@@H]1CCCC2NC(CCCCCO[Si](c3ccccc3)(c3ccccc3)C(C)(C)C)CCC21 (stereo partly drawn)
TGI (SK-MEL-5 melanoma): 35.3 µM
TGI (SNB-75 CNS): 30 µM
TGI (HT29 colon): 16.1 µM
TGI (UACC-257 melanoma): 29 µM
TGI (CCRF-CEM leukemia): 26.7 µM
TGI (MALME-3M melanoma): 36.9 µM

Cc1c(C)c2cc3c(=O)c(CCl)coc3c(C)c2oc1=O
TGI (SK-MEL-5 melanoma): > 100 µM
TGI (SNB-75 CNS): > 100 µM
TGI (UACC-257 melanoma): > 100 µM
TGI (CCRF-CEM leukemia): > 100 µM
TGI (MALME-3M melanoma): > 100 µM
